Where two headings read alike, the source gives them in different places.
Test system: monocistronic NK5.1 HCV replicon in Huh7 cells
Experiment: HCV replicon assay, monocistronic replicon cell line
Type: cell-based, hepatitis C virus
Settings: Hepatitis C virus, read-out: Mono EC50 Median
Excerpt: HCV Replicon Assays (Replicon EC50 (μM))
HCV replication can be measured by a replicon assay such as described by Vrolijk et al, J. Virol. Methods 110:201(2003), which is hereby incorporated in its entirety by reference. The method was implemented as follows.
Monocistronic Replicon Cell Line:
Human hepatocyte Huh7 cells containing the monocistronic NK5.1 replicon were obtained from Ralf Bartenschlager at the University of Mainz, Germany. These cells were maintained under hygromycin selection and passaged when 80-90% confluent.
This cell line contains an autonomously replicating RNA element (replicon) incorporating the non-structural HCV elements necessary for replication, and upon which the survival of the replicon in the cell depends. This replicon contains a single internal ribosome entry site (HCV IRES). Inhibition of any of the critical HCV finctions by a compound leads to loss of the replicon as measured by HCV replicon RNA copy number reduction. The amount of HCV RNA present following a standard incubation with a compound is a measure of the anti-HCV activity of the compound. The assay was conducted by preparing sufficient 96-well plates containing these cells, wherein cells are seeded at 6000 cells/well in a 96-well plate, in 200 μl of final media volume. Cells were then incubated for 24 hours at 37 C., 5% CO2, and 95% humidity before compound was added. Six point half-log concentration response assays were conducted to determine potency/EC50 of Formula I compounds to inhibit HCV replicon replication. The final percent DMSO acceptable in this assay system is 0.6%. Compounds were diluted in media in an appropriate format and 5 μl of each drug dilution is added to each well. Cells were then incubated with compounds for 3 days at 37 C., 5% CO2, and 95% humidity. Following the three day incubation period, plates were washed twice with phosphate buffered saline to remove media and cells were lysed with Qiagen extraction buffer. RNA was extracted and isolated with the Qiagen RNAeasy kit according to the manufacturer's protocol (Qiagen). TaqMan One-Step RT-PCR was used in conjunction with an ABI 7700 Sequence Detector (Applied Biosystems) for the quantitation and analysis of HCV replicon RNA copy number. A GAPDH probe was used for internal normalization. The ratio of HCV RNA to cellular GAPDH RNA was determined and compared to the DMSO-only treated control, and the ratio of HCV RNA/GAPDH RNA was used for an EC50 determination and as a measure of specificity for inhibition of the HCV replicon.

[1] = Huh-7, monocistronic NK5.1 HCV replicon in Huh7 cells, median value
[2] = Huh-7, 72 h, table T3 (compounds 471-640), monocistronic replicon in Huh7 cells, 3 days incubation, HCV RNA/GAPDH RNA by TaqMan RT-PCR
[3] = Huh-7, 72 h, Table 1, monocistronic replicon in Huh7 cells, 3 days incubation, HCV RNA/GAPDH RNA by TaqMan RT-PCR

Row | Structure (SMILES) | EC50 [1] | EC50 [2] | EC50 [3]
1 | COc1ccc(O)c(-c2noc(-c3ccco3)n2)c1 [Compound 302, 2-(5-Furan-2-yl-[1,2,4]oxadiazol-3-yl)-4-methoxy-phenol] | 16 µM |  | 
2 | Oc1ccc2ccccc2c1-c1nc(-c2ncccn2)n[nH]1 [Compound 573, 1-(5-pyrimidin-2-yl-2H-[1,2,4]triazol-3-yl)-naphthalen-2-ol] |  | 3.5 µM | 
3 | c1ccc2c(-c3nc(-c4nccc5ccccc45)n[nH]3)cccc2c1 [Compound 366, 1-(5-Naphthalen-1-yl-1H-[1,2,4]triazol-3-yl)-isoquinoline] | > 32 µM |  | 
4 | Oc1ccc(Cl)cc1-c1nc(-c2ccc(C(F)(F)F)cn2)n[nH]1 [Compound 511, 4-Chloro-2-[5-(5-trifluoromethyl-pyridin-2-yl)-2H-[1,2,4]triazol-3-yl]-phenol] |  | > 19 µM | 
5 | COc1ccc(O)c(-c2nc(-c3ncccc3C)nn2C)c1 [Compound 609, 4-Methoxy-2-[2-methyl-5-(3-methyl-pyridin-2-yl)-2H-[1,2,4]triazol-3-yl]-phenol] |  | 17 µM | 
6 | Oc1c(Br)cc(Br)cc1-c1nc(-c2ccccn2)n[nH]1 [Compound 620, 4,6-Dibromo-2-(5-pyridin-2-yl-2H-[1,2,4]triazol-3-yl)-phenol] |  | 0.6 µM | 
7 | Oc1ccc(Br)cc1-c1nc(-c2ccc(C(F)(F)F)cn2)no1 [Compound 213] | 25 µM |  | 25 µM
8 | Oc1ccc(O)c(-c2nc(-c3nccc4ccccc34)n[nH]2)c1 [Compound 381, 4-Hydroxy-2-(5-isoquinolin-1-yl-2H-[1,2,4]triazol-3-yl)-phenol] | 8.5 µM |  | 
9 | Cc1cc(-c2c(O)ccc3ccccc23)nn1-c1ncc(C(F)(F)F)cc1Cl [Compound 20, 1-[1-(3-Chloro-5-trifluoromethyl-pyridin-2-yl)-5-methyl-1H-pyrazol-3-yl]-naphthalen-2-ol] |  |  | 13 µM
10 | Cc1cccnc1-c1n[nH]c(-c2cc(O)ccc2O)n1 [Compound 457, 4-Hydroxy-2-[5-(3-methyl-pyridin-2-yl)-2H-[1,2,4]triazol-3-yl]-phenol] | 4.1 µM |  | 
11 | COc1cccc(-c2nc(-c3ccc(C(F)(F)F)cn3)n[nH]2)c1 [Compound 523, 2-[5-(3-Methoxy-phenyl)-1H-[1,2,4]triazol-3-yl]-5-trifluoromethyl-pyridine] |  | > 19 µM | 
12 | COc1ccc(O)c(-c2ncn(-c3ccccn3)n2)c1 [Compound 636, 4-Methoxy-2-(1-pyridin-2-yl-1H-[1,2,4]triazol-3-yl)-phenol] |  | 15 µM | 
13 | Cc1cccnc1-c1n[nH]c(-c2c(O)ccc3ccccc23)n1 [Compound 461, 1-(5-(3-methyl-pyridin-2-yl)-2H-[1,2,4]triazol-3-yl)-naphthalen-2-ol] | 6.9 µM |  | 
14 | Oc1ccc(Br)cc1-c1nc(-c2nccc3ccccc23)no1 [Compound 204] |  |  | 1.6 µM
15 | c1ccc(-c2ncn(-c3ccccn3)n2)cc1 [Compound 628, 2-(3-Phenyl-[1,2,4]triazol-1-yl)-pyridine] |  | > 32 µM | 
16 | Nc1cccnc1-c1n[nH]c(-c2c(O)ccc3ccccc23)n1 [Compound 557, 1-[5-(3-amino-pyridin-2-yl)-2H-[1,2,4]triazol-3-yl]-naphthalen-2-ol] |  | > 3.2 µM | 
17 | Oc1ccccc1-c1nc(-c2ccc(C(F)(F)F)cn2)no1 [Compound 223] | 19 µM |  | 19 µM
18 | COc1ccc(O)c(-c2ccn(-c3ncccc3C(=O)N3CCCCC3)n2)c1 [Compound 104, {2-[3-(2-Hydroxy-5-methoxy-phenyl)-pyrazol-1-yl]-pyridin-3-yl}-piperidin-1-yl-methanone] |  |  | > 32 µM
19 | Oc1ccc(Br)cc1-c1ccnn1-c1ncccc1C(F)(F)F [Compound 106, 4-Bromo-2-[2-(3-trifluoromethyl-pyridin-2-yl)-2H-pyrazol-3-yl]-phenol] |  |  | 15 µM
20 | Oc1ccc2ccccc2c1-c1nc(-c2ccccn2)n[nH]1 [Compound 482, 1-(5-Pyridin-2-yl-2H-[1,2,4]triazol-3-yl)-naphthalen-2-ol] |  | > 19 µM | 
21 | COc1ccc(-n2nc(-c3ccccc3O)cc2C)cc1 [Compound 14, 2-[1-(4-Methoxy-phenyl)-5-methyl-1H-pyrazol-3-yl]-phenol] |  |  | 11 µM

Row | Structure (SMILES) | EC50 [1] | EC50 [2] | EC50 [3]
22 | O=[N+]([O-])c1ccc(Cl)c(-c2nc(-c3ccc(C(F)(F)F)cn3)no2)c1 [Compound 226, 2-[5-(2-Chloro-5-nitro-phenyl)-[1,2,4]oxadiazol-3-yl]-5-trifluoromethyl-pyridine] | 4.3 µM |  | 4.3 µM
23 | Oc1ccc2ccccc2c1-c1nnc(-c2ccccc2F)o1 [Compound 305, 1-[5-(2-Fluoro-phenyl)-[1,3,4]oxadiazol-2-yl]-naphthalen-2-ol] | > 32 µM |  | 
24 | COc1cccc(-c2nc(-c3ncccc3C(F)(F)F)no2)c1O [Compound 207, 2-Methoxy-6-[3-(3-trifluoromethyl-pyridin-2-yl)-[1,2,4]oxadiazol-5-yl]-phenol] |  |  | 17 µM
25 | Cc1cc(-c2c(O)ccc3ccccc23)nn1-c1ccccc1C(F)(F)F [Compound 5, 1-[5-Methyl-1-(2-trifluoromethyl-phenyl)-1H-pyrazol-3-yl]-naphthalen-2-ol] |  |  | > 19 µM
26 | Cc1ccc(O)c(-c2nc(-c3ccccn3)no2)c1 [Compound 172, 4-Methyl-2-(3-pyridin-2-yl-[1,2,4]oxadiazol-5-yl)-phenol] |  |  | 6 µM
27 | COc1ccc(OC)c(-c2nc(-c3ccccn3)no2)c1 [Compound 142, 2-[5-(2,5-Dimethoxy-phenyl)-[1,2,4]oxadiazol-3-yl]-pyridine] |  |  | 20 µM
28 | COc1cccc(O)c1-c1nc(-c2ncccc2C)no1 [Compound 241, 3-Methoxy-2-[3-(3-methyl-pyridin-2-yl)-[1,2,4]oxadiazol-5-yl]-phenol] | > 10 µM |  | > 10 µM
29 | COc1ccc(F)c(-c2nc(-c3ncccc3Br)n[nH]2)c1 [Compound 501, 3-Bromo-2-[5-(2-Fluoro-5-methoxy-phenyl)-1H-[1,2,4]triazol-3-yl]-pyridine] |  | > 32 µM | 
30 | COc1ccc(O)c(-c2noc(-c3ncccc3C)n2)c1 [Compound 301, 4-Methoxy-2-[5-(3-methyl-pyridin-2-yl)-[1,2,4]oxadiazol-3-yl]-phenol] | > 32 µM |  | 
31 | COc1ccc(-c2ccn(-c3ncccc3C(F)(F)F)n2)c(OCc2ccccc2)c1 [Compound 90] |  |  | 4.4 µM
32 | COc1ccc2ccccc2c1-c1nc(-c2ncccc2[N+](=O)[O-])no1 [Compound 169] |  |  | > 19 µM
33 | COc1ccccc1-c1nnc(-c2cccs2)o1 [Compound 331, 2-(2-Methoxy-phenyl)-5-thiophen-2-yl-[1,3,4]oxadiazole] | > 32 µM |  | 
34 | CC(=O)Nc1ccc(-c2noc(-c3cc(C)ccc3O)n2)nc1 [Compound 264, N-{6-[5-(2-Hydroxy-5-methyl-phenyl)-[1,2,4]oxadiazol-3-yl]-pyridin-3-yl}-acetamide] | > 19 µM |  | 
35 | O=[N+]([O-])c1cccnc1-n1ccc(-c2ccccc2O)n1 [Compound 41, 2-[1-(3-Nitro-pyridin-2-yl)-1H-pyrazol-3-yl]-phenol] |  |  | 6 µM
36 | O=[N+]([O-])c1cccc(-c2nc(-c3ccc(C(F)(F)F)cn3)no2)c1 [Compound 215, 2-[5-(3-Nitro-phenyl)-[11,2,4]oxadiazol-3-yl]-5-trifluoromethyl-pyridine] | 31 µM |  | 31 µM
37 | COc1ccc(-c2ccn(-c3ncc(C(F)(F)F)cc3Cl)n2)c(F)c1 [Compound 47, 3-Chloro-2-[3-(2-fluoro-4-methoxy-phenyl)-pyrazol-1-yl]-5-trifluoromethyl-pyridine] |  |  | 6 µM
38 | CSc1ccc(O)c(-c2nc(-c3ncccc3C)no2)c1 [Compound 294, 2-[3-(3-Methyl-pyridin-2-yl)-[1,2,4]oxadiazol-5-yl]-4-methylsulfanyl-phenol] | 0.2 µM |  | 
39 | COc1ccc(OCc2ccccc2)c(-c2ccn(-c3ccccn3)n2)c1 [Compound 82, 2-[3-(2-Benzvloxy-5-methoxy-phenvl)-pvrazol-1-yl]-pyridine] |  |  | 4.3 µM
40 | Oc1ccccc1-c1nnc(-c2ncc(C(F)(F)F)cc2Cl)o1 [Compound 343, 2-[5-(3-Chloro-5-trifluoromethyl-pyridin-2-yl)-[1,3,4]oxadiazol-2-yl]-phenol] | 17 µM |  | 
41 | COc1ccc(OCc2ccccc2)c(-c2ccn(Cc3ccccn3)n2)c1 [Compound 114, 2-[3-(2-Benzyloxy-5-methoxy-phenyl)-pyrazol-1-ylmethyl]-pyridine] |  |  | 9.5 µM

From patent publication US20050075375A1 (priority 2003, published 2005)
